Measurements reported in PubChem BioAssay (NCI).
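Interpolation was linear, between the two tested concentrations surrounding the appropriate level; five concentrations were tested over 48 hours in 96-well plates. GI50 = concentration required for 50% inhibition of growth. TGI denotes the concentration required for complete inhibition of growth.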

Key:
Assay in all cases: NCI tumour cell line growth inhibition, 48 h
[1] = test system: SN12C renal
[2] = test system: SF-539 CNS
[3] = test system: EKVX NSCLC
[4] = test system: MOLT-4 leukemia
[5] = test system: SF-268 CNS
[6] = test system: A549 NSCLC
[7] = test system: A498 renal
[8] = test system: U251 CNS
[9] = test system: UO-31 renal
[10] = test system: SR leukemia

SMILES	GI50 [1]	TGI [1]	GI50 [2]	TGI [2]	GI50 [3]	TGI [3]	GI50 [4]	TGI [4]	GI50 [5]	TGI [5]	GI50 [6]	TGI [6]	GI50 [7]	TGI [7]	GI50 [8]	TGI [8]	GI50 [9]	TGI [9]	GI50 [10]	TGI [10]
O=C(Cc1ccc(/C=C/C(=O)c2ncc[nH]2)cc1)Nc1ccc(Cl)cc1	2.4 µM	6.91 µM	3.33 µM	7.03 µM	5.68 µM	20.2 µM	1.8 µM	24.2 µM	1.65 µM	> 25 µM	6.9 µM	> 25 µM	5.48 µM	13 µM	1.02 µM	3.49 µM	1.69 µM	5.11 µM	0.798 µM	> 25 µM
Fc1ccc(-c2nn(-c3ccccc3)cc2-c2nc3ccccc3o2)cc1	6.15 µM	33.5 µM	8.88 µM	28.7 µM	5.29 µM	90.6 µM	3.62 µM	> 100 µM	4.53 µM	> 100 µM	3.46 µM	16.4 µM	2.97 µM	56.7 µM	1.93 µM	16.5 µM	1.67 µM	35.1 µM	3.71 µM	> 100 µM
CN=C1NC(=O)/C(=C/c2ccc3ncccc3c2)S1	7.7 µM	> 25 µM	5.88 µM	> 25 µM			11.2 µM	> 25 µM	10.7 µM	> 25 µM	5.13 µM	> 25 µM	3.86 µM	13.7 µM	5.19 µM	> 25 µM	5.29 µM	> 25 µM	2.14 µM	16.7 µM
CCOC(=O)c1cc(-c2ccc([N+](=O)[O-])cc2)n(-c2ccc(C(=O)O)c(O)c2)c1C	6.73 µM	22.6 µM	10.6 µM	22.5 µM	5.2 µM	18 µM	3.37 µM	20.7 µM	4.69 µM	19.6 µM	3.38 µM	12.7 µM	10.1 µM	21.9 µM	3.61 µM	14.1 µM	3.74 µM	18.3 µM	9.3 µM	> 100 µM
O=C1Oc2cc3c(c4cccc1c24)OCN(c1ccc(Cl)cc1)C3		29.1 µM		23.9 µM		> 100 µM		51.4 µM		> 100 µM		> 100 µM		> 100 µM		> 79.5 µM		32.2 µM		49 µM
Cc1c(C(=O)/C=C/c2cccc3ccccc23)[n+](=O)c2ccccc2n1[O-]		29.8 µM		23.8 µM		27.3 µM		35.4 µM		29.3 µM		35 µM		30.8 µM		29.1 µM		31.2 µM		38.2 µM
OCCNCO		> 100 µM		> 100 µM		> 100 µM		> 100 µM		> 100 µM		> 100 µM		> 100 µM		> 100 µM		> 100 µM		> 100 µM
NC1(CCCCCCCCCCC(=O)O)CNCCNCCNCCNC1		> 100 µM		> 100 µM		> 100 µM		> 100 µM		> 100 µM		> 100 µM		46.7 µM				> 100 µM		67.2 µM
Cc1c(Cl)cccc1Nc1ncccc1C(=O)O	> 100 µM	> 100 µM	77.2 µM	> 100 µM	34.1 µM	> 100 µM	> 100 µM	> 100 µM	> 100 µM	> 100 µM	> 100 µM	> 100 µM	34.3 µM	> 100 µM	63.4 µM	> 100 µM	55.7 µM	> 100 µM	> 100 µM	> 100 µM
N#Cc1cnn2ccn(C3OC(COC(=O)c4ccccc4)C(OC(=O)c4ccccc4)C3OC(=O)c3ccccc3)c12 (stereo unspecified)		> 21.5 µM		> 21.5 µM		> 21.5 µM		> 21.5 µM		> 21.5 µM		> 21.5 µM		21.5 µM		> 21.5 µM		> 21.5 µM		> 31.6 µM
O=C1CSC(N2CCN(c3cccc(Cl)c3)CC2)=N1	> 100 µM	> 100 µM	> 100 µM	> 100 µM	> 100 µM	> 100 µM	> 100 µM	> 100 µM	> 100 µM	> 100 µM	> 100 µM	> 100 µM	> 100 µM	> 100 µM	> 100 µM	> 100 µM	> 100 µM	> 100 µM	> 100 µM	> 100 µM
CC(=O)/C=C/c1cccc(N=S)c1		87.2 µM		20.8 µM		> 63 µM		> 75.2 µM		> 69.6 µM		> 59.1 µM		78.7 µM		20.8 µM		> 74 µM		> 100 µM
O=S(=O)(O)C(O)/C=C/c1ccccc1 (stereo unspecified)		> 100 µM				> 100 µM		> 100 µM		> 100 µM		> 100 µM		> 100 µM		> 100 µM		> 100 µM		> 100 µM
O=C(O)Cc1c[nH]c2ccc(F)cc12		> 100 µM		> 100 µM		> 100 µM		> 100 µM				> 100 µM		> 100 µM		> 100 µM		> 100 µM		> 100 µM
COc1cc2c(NCCCCCCO[N+](=O)[O-])ncnc2c(OC)c1OC		> 71.5 µM		71.1 µM		68.3 µM		> 61.9 µM		> 100 µM		> 95.7 µM		52 µM		> 100 µM		21.2 µM		45.1 µM
COc1ccc(CN2CCCC(C(=O)c3ccc(C(F)(F)F)cc3)C2)c(O)c1 (stereo unspecified)	24.4 µM	89.3 µM	18.8 µM	46.1 µM			27.5 µM	> 100 µM	42.1 µM	> 100 µM	36.4 µM	> 100 µM	0.0189 µM	33.1 µM	26 µM	> 100 µM	14.4 µM	59.6 µM	18 µM	66.5 µM
C/C(=N\NC(N)=S)c1ccc(C)cc1C		> 100 µM		> 100 µM		> 100 µM		> 100 µM				> 100 µM		> 100 µM		> 100 µM		> 100 µM		> 100 µM
COc1cc2c(cc1OC)C1C=NC(C(=O)O)(C2)c2ccccc21 (stereo unspecified)		> 100 µM		> 100 µM		> 100 µM		> 100 µM		> 100 µM		> 100 µM		> 100 µM		> 100 µM				> 100 µM
